According to PubChem BioAssay AID2060897 (Molecular Pharmacology Branch, DTP, NCI, 2025):

System: 966289-007-R4-J1-PDC complex spheroid viability
Assay: Anticancer human tumor 966289-007-R4-J1-PDC patient-derived pancreatic adenocarcinoma cell line growth inhibition [RAS]
Settings: for IC50: curve of first compound; for viability, T/C: stronger effect = lower value
Outline: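 Multi-cell-type spheroids: tumor cells plus HUVEC endothelial cells and mesenchymal stem cells. RAS-pathway inhibitors were combined with targeted agents, each dosed in half-log steps down from clinical Cmax, or from 10 microM when Cmax was unknown.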

[1] = second compound 0.000949 µM, first compound 0.0316 µM
[2] = second compound 0.000949 µM, first compound 0.1 µM
[3] = second compound 0.000949 µM, first compound 0.316 µM
[4] = second compound 0.000949 µM, first compound 1 µM
[5] = second compound 0.003 µM, first compound 0.0316 µM
[6] = second compound 0.003 µM, first compound 0.1 µM
[7] = second compound 0.003 µM, first compound 0.316 µM
[8] = second compound 0.003 µM, first compound 1 µM
[9] = second compound 0.00949 µM, first compound 0.0316 µM
[10] = second compound 0.00949 µM, first compound 0.1 µM
[11] = second compound 0.00949 µM, first compound 0.316 µM
[12] = second compound 0.00949 µM, first compound 1 µM
[13] = second compound 0.03 µM, first compound 0.0316 µM
[14] = second compound 0.03 µM, first compound 0.1 µM
[15] = second compound 0.03 µM, first compound 0.316 µM
[16] = second compound 0.03 µM, first compound 1 µM
[17] = second compound 0.0949 µM, first compound 0.0316 µM
[18] = second compound 0.0949 µM, first compound 0.1 µM
[19] = second compound 0.0949 µM, first compound 0.316 µM
[20] = second compound 0.0949 µM, first compound 1 µM
[21] = second compound 0.3 µM, first compound 0.0316 µM
[22] = second compound 0.3 µM, first compound 0.1 µM
[23] = second compound 0.3 µM, first compound 0.316 µM
[24] = second compound 0.3 µM, first compound 1 µM
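Note: spheroids exposed to agents for one week before readout.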
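Throughout, for viability, T/C: percent viability relative to DMSO vehicle control wells as 100%.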

C=CC(=O)Nc1cc(Nc2nccc(-c3cn(C)c4ccccc34)n2)c(OC)cc1N(C)CCN(C)C + CCn1c(-c2cccnc2C(C)OC)c2c3cc(ccc31)N1CCOC(CC(NC(=O)C(C(C)C)N(C)C(=O)C3(F)CCN(C(=O)C#CC(C)(C)N(C)C)CC3)C(=O)N3CCCC(N3)C(=O)OCC(C)(C)C2)C1
IC50 (second compound 0.000949 µM): > 1 µM
IC50 (second compound 0.003 µM): > 1 µM
IC50 (second compound 0.00949 µM): > 1 µM
IC50 (second compound 0.03 µM): > 1 µM
IC50 (second compound 0.0949 µM): > 1 µM
IC50 (second compound 0.3 µM): > 1 µM
viability, T/C (second compound 0.000949 µM, first compound 0.00316 µM): 101%
viability, T/C (second compound 0.000949 µM, first compound 0.01 µM): 101%
viability, T/C [1]: 99.9%
viability, T/C [2]: 56.5%
viability, T/C [3]: 77.5%
viability, T/C [4]: 67.8%
viability, T/C (second compound 0.003 µM, first compound 0.00316 µM): 106%
viability, T/C (second compound 0.003 µM, first compound 0.01 µM): 84.3%
viability, T/C [5]: 82.1%
viability, T/C [6]: 56.4%
viability, T/C [7]: 55.1%
viability, T/C [8]: 61.9%
viability, T/C (second compound 0.00949 µM, first compound 0.00316 µM): 87%
viability, T/C (second compound 0.00949 µM, first compound 0.01 µM): 97%
viability, T/C [9]: 90.8%
viability, T/C [10]: 66.4%
viability, T/C [11]: 78.5%
viability, T/C [12]: 78.4%
viability, T/C (second compound 0.03 µM, first compound 0.00316 µM): 65%
viability, T/C (second compound 0.03 µM, first compound 0.01 µM): 90%
viability, T/C [13]: 99.3%
viability, T/C [14]: 69.8%
viability, T/C [15]: 92.7%
viability, T/C [16]: 77.5%
viability, T/C (second compound 0.0949 µM, first compound 0.00316 µM): 76.9%
viability, T/C (second compound 0.0949 µM, first compound 0.01 µM): 93.5%
viability, T/C [17]: 117%
viability, T/C [18]: 67.8%
viability, T/C [19]: 113%
viability, T/C [20]: 67.7%
viability, T/C (second compound 0.3 µM, first compound 0.00316 µM): 81.5%
viability, T/C (second compound 0.3 µM, first compound 0.01 µM): 107%
viability, T/C [21]: 111%
viability, T/C [22]: 101%
viability, T/C [23]: 108%
viability, T/C [24]: 90.8%

C[C@@H](NC(=O)c1ncnc(N)c1Cl)c1ncc(C(=O)Nc2cc(C(F)(F)F)c(Cl)cn2)s1 + CCn1c(-c2cccnc2C(C)OC)c2c3cc(ccc31)N1CCOC(CC(NC(=O)C(C(C)C)N(C)C(=O)C3(F)CCN(C(=O)C#CC(C)(C)N(C)C)CC3)C(=O)N3CCCC(N3)C(=O)OCC(C)(C)C2)C1
IC50 (second compound 0.000949 µM): > 10 µM
IC50 (second compound 0.003 µM): > 10 µM
IC50 (second compound 0.00949 µM): > 10 µM
IC50 (second compound 0.03 µM): > 10 µM
IC50 (second compound 0.0949 µM): > 10 µM
IC50 (second compound 0.3 µM): > 10 µM
viability, T/C [1]: 115%
viability, T/C [2]: 92.1%
viability, T/C [3]: 91.9%
viability, T/C [4]: 47.5%
viability, T/C (second compound 0.000949 µM, first compound 3.16 µM): 66.5%
viability, T/C (second compound 0.000949 µM, first compound 10 µM): 100%
viability, T/C [5]: 92.5%
viability, T/C [6]: 75.4%
viability, T/C [7]: 118%
viability, T/C [8]: 61%
viability, T/C (second compound 0.003 µM, first compound 3.16 µM): 72.3%
viability, T/C (second compound 0.003 µM, first compound 10 µM): 118%
viability, T/C [9]: 70.2%
viability, T/C [10]: 80.6%
viability, T/C [11]: 71.3%
viability, T/C [12]: 85%
viability, T/C (second compound 0.00949 µM, first compound 3.16 µM): 115%
viability, T/C (second compound 0.00949 µM, first compound 10 µM): 111%
viability, T/C [13]: 55.4%
viability, T/C [14]: 57.1%
viability, T/C [15]: 81%
viability, T/C [16]: 73.5%
viability, T/C (second compound 0.03 µM, first compound 3.16 µM): 120%
viability, T/C (second compound 0.03 µM, first compound 10 µM): 98.5%
viability, T/C [17]: 55.5%
viability, T/C [18]: 99.1%
viability, T/C [19]: 87%
viability, T/C [20]: 78.2%
viability, T/C (second compound 0.0949 µM, first compound 3.16 µM): 106%
viability, T/C (second compound 0.0949 µM, first compound 10 µM): 134%
viability, T/C [21]: 65.6%
viability, T/C [22]: 91.7%
viability, T/C [23]: 90.5%
viability, T/C [24]: 117%
viability, T/C (second compound 0.3 µM, first compound 3.16 µM): 146%
viability, T/C (second compound 0.3 µM, first compound 10 µM): 105%

CCC(CC)c1cc(NC2CCC(N)C2)n2nccc2n1 (stereo unspecified) + C=CC(=O)N1CCN(c2nc(OCC3CCCN3C)nc3c(F)c(-c4nc(N)cc(C)c4C(F)(F)F)c(Cl)cc23)C(C)C1
IC50 (second compound 0.00316 µM): 1.9 µM
IC50 (second compound 0.01 µM): 1.83 µM
IC50 (second compound 0.0316 µM): 1.85 µM
IC50 (second compound 0.1 µM): 1.88 µM
IC50 (second compound 0.316 µM): 1.86 µM
IC50 (second compound 1 µM): 1.84 µM
viability, T/C (second compound 0.00316 µM, first compound 0.0316 µM): 104%
viability, T/C (second compound 0.00316 µM, first compound 0.1 µM): 93.6%
viability, T/C (second compound 0.00316 µM, first compound 0.316 µM): 112%
viability, T/C (second compound 0.00316 µM, first compound 1 µM): 131%
viability, T/C (second compound 0.00316 µM, first compound 3.16 µM): 2.16%
viability, T/C (second compound 0.00316 µM, first compound 10 µM): 2.13%
viability, T/C (second compound 0.01 µM, first compound 0.0316 µM): 99.5%
viability, T/C (second compound 0.01 µM, first compound 0.1 µM): 95.7%
viability, T/C (second compound 0.01 µM, first compound 0.316 µM): 101%
viability, T/C (second compound 0.01 µM, first compound 1 µM): 114%
viability, T/C (second compound 0.01 µM, first compound 3.16 µM): 2.2%
viability, T/C (second compound 0.01 µM, first compound 10 µM): 2.15%
viability, T/C (second compound 0.0316 µM, first compound 0.0316 µM): 92%
viability, T/C (second compound 0.0316 µM, first compound 0.1 µM): 102%
viability, T/C (second compound 0.0316 µM, first compound 0.316 µM): 103%
viability, T/C (second compound 0.0316 µM, first compound 1 µM): 123%
viability, T/C (second compound 0.0316 µM, first compound 3.16 µM): 2.15%
viability, T/C (second compound 0.0316 µM, first compound 10 µM): 1.75%
viability, T/C (second compound 0.1 µM, first compound 0.0316 µM): 103%
viability, T/C (second compound 0.1 µM, first compound 0.1 µM): 103%
viability, T/C (second compound 0.1 µM, first compound 0.316 µM): 111%
viability, T/C (second compound 0.1 µM, first compound 1 µM): 117%
viability, T/C (second compound 0.1 µM, first compound 3.16 µM): 2.07%
viability, T/C (second compound 0.1 µM, first compound 10 µM): 2.09%
viability, T/C (second compound 0.316 µM, first compound 0.0316 µM): 103%
viability, T/C (second compound 0.316 µM, first compound 0.1 µM): 97.9%
viability, T/C (second compound 0.316 µM, first compound 0.316 µM): 98.8%
viability, T/C (second compound 0.316 µM, first compound 1 µM): 125%
viability, T/C (second compound 0.316 µM, first compound 3.16 µM): 2.42%
viability, T/C (second compound 0.316 µM, first compound 10 µM): 2.33%
viability, T/C (second compound 1 µM, first compound 0.0316 µM): 91.4%
viability, T/C (second compound 1 µM, first compound 0.1 µM): 92.1%
viability, T/C (second compound 1 µM, first compound 0.316 µM): 119%
viability, T/C (second compound 1 µM, first compound 1 µM): 113%
viability, T/C (second compound 1 µM, first compound 3.16 µM): 2.27%
viability, T/C (second compound 1 µM, first compound 10 µM): 2.77%
